Consider 6 molecules from patent US7897569B2, “Use of HMGB fragments as anti-inflammatory agents” (The Feinstein Institute for Medical Research, priority 2001, dated 2011).

Ends that are not written are not given here.

This experiment has as its system RAW 264.7 cells. Briefly: TNF release from RAW 264.7 cells (L929 cytotoxicity bioassay). Format: cell-based, murine. Particulars: for TNF release by synthetic peptide fragment of B box: no polymyxin B. On the procedure:
Murine macrophage-like RAW 264.7 cells (American Type Culture Collection, Rockville, Md.) were cultured in RPMI 1640 medium (Life Technologies, Grand Island N.Y.) supplemented with 10% fetal bovine serum (Gemini, Catabasas, Calif.), penicillin and streptomycin (Life Technologies) and were used at 90% confluence in serum-free Opti-MEM I medium (Life Technologies, Grand Island, N.Y.). […] Polymyxin B was not used in experiments of synthetic peptide studies.
TNF release was measured by a standard murine fibroblast L929 (ATCC, American Type Culture Collection, Rockville, Md.) cytotoxicity bioassay (Bianchi et al., Journal of Experimental Medicine 183:927-936, 1996) with the minimum detectable concentration of 30 pg/ml. Recombinant mouse TNF was obtained from R&D system Inc., (Minneapolis, Minn.). Murine fibroblast L929 cells (ATCC) were cultured in DMEM (Life Technologies, Grand Island, N.Y.) supplemented with 10% fetal bovine serum (Gemini, Catabasas, Calif.), penicillin (50 units/ml) and streptomycin (50 μg/ml) (Life Technologies) in a humidified incubator with 5% CO2.
The effect of the mutants on TNF release from Murine macrophage-like RAW 264.7 cells (ATCC) was carried out as follows. RAW 264.7 cells were cultured in RPMI 1640 medium (Life Technologies, Grand Island N.Y.) supplemented with 10% fetal bovine serum (Gemini, Catabasas, Calif.), penicillin and streptomycin (Life Technologies). Polymyxin (Sigma, St. Louis, Mo.) was added at 100 units/ml to suppress the activity of any contaminating LPS. Cells were incubated with 1 μg/ml of full length (wild-type) HMGB1 and each HMGB1 mutant protein in Opti-MEM I medium for 8 hours, and conditioned supernatants (containing TNF which had been released from the cells) were collected and TNF released from the cells was measured by a standard murine fibroblast L929 (ATCC) cytotoxicity bioassay (Bianchi et al., supra) with the minimum detectable concentration of 30 pg/ml. Recombinant mouse TNF was obtained from R & D Systems Inc., (Minneapolis, Minn.) and used as control in these experiments. Data in FIG. 1 are all presented as mean+SEM unless otherwise indicated. (N=6-10).
To further examine the effect of HMGB1 B box on cytokine production, varying amounts of HMGB1 B box were evaluated for the effects on TNF, IL-1 B, and IL-6 production in murine macrophage-like RAW 264.7 cells. Conditioned media were harvested and measured for TNF, IL-1β and IL-6 levels. TNF levels were measured as described herein, and IL-1β and IL-6 levels were measured using the mouse IL-1β and IL-6 enzyme-linked immunosorbent assay (ELISA) kits (R&D System Inc., Minneapolis, Minn.) and N>5 for all experiments.
The kinetics of B box-induced TNF release was also examined. TNF release and TNF mRNA expression was measured in RAW 264.7 cells induced by B box polypeptide or GST tag polypeptide only used as a control (vector) (10 μg/ml) for 0 to 48 hours. Supernatants were analyzed for TNF protein levels by an L929 cytotoxicity assay (N=3-5) as described herein. For mRNA measurement, cells were plated in 100 mm plate and treated in Opti-MEM I medium containing B box polypeptide or the vector alone for 0, 4, 8, or 24 hours, as indicated in FIG. 2D. The vector only sample was assayed at the 4 hour time point. Cells were scraped off the plate and total RNA was isolated by RNAzol B method in accordance with the manufacturer's instructions (Tel-Test “B”, Inc., Friendswood, Tex.). TNF (287 bp) was measured by RNase protection assay (Ambion, Austin, Tex.). Equal loading and the integrity of RNA was verified by ethidium bromide staining of the RNA sample on agarose-formaldehyde gel. […] TNF mRNA expression was maximal at 4 hours and decreased at 8 and 24 hours. […] A similar study was carried out measuring TNF protein released from RAW 264.7 cells 0, 4, 8, 24, 32 or 48 hours after administration of B box or vector only (GST tag), using the L929 cytotoxicity assay described herein. […] Data are representative of three separate experiments. […]

As to “16-25: Synthetic peptide fragment, amino acids 16-25 of the HMGB1 B box (SEQ ID NO:20) (LFCSEYRPKI)”, the “TNF release by synthetic peptide fragment of B box” value (peptide 10 μg/ml, 10 hours) is on record as “did not induce TNF release”.
Still for that read-out and setting: the entry for “30-49: Synthetic peptide fragment, amino acids 30-49 of the HMGB1 B box (SEQ ID NO:20) (PGLSIGDVAKKLGEMWNNTA)” is “did not induce TNF release”.
Still for that read-out and setting: with “45-64: Synthetic peptide fragment, amino acids 45-64 of the HMGB1 B box (SEQ ID NO:20) (WNNTAADDKQPYEKKAAKLK)” the entry was “did not induce TNF release”.
The same measure, in the same setting: the entry for “60-74: Synthetic peptide fragment, amino acids 60-74 of the HMGB1 B box (SEQ ID NO:20) (AAKLKEKYEKDIAAY)” is “did not induce TNF release”.
“fkdpnapkrlpsafflfcse (FKDPNAPKRLPSAFFLFCSE; not fully specified; printed as fkdpnapkrlpsafflfcse) [1-20-mer]”: under “peptide 10 μg/ml, 10 hours”, the “TNF stimulating activity relative to full length B box and HMGB1” value is recorded as “less potent than either the full length synthetic B box (1-74-mer), or full length HMGB1”; the “TNF release by synthetic peptide fragment of B box” value is reported as “TNF-stimulating activity was retained”.

B1: carboxyl-truncated HMGB1: Human HMGB1 mutant in which the carboxy terminus was deleted, SEQ ID NO:19 (protein)
chain: MGKGDPKKPTGKMSSYAFFVQTCREEHKKKHPDASVNFSEFSKKCSERWKTMSAKEKGKFEDMAKADKARYEREMKTYIPPKGETKKKFKDPNAPKRLPSAFFLFCSEYRPKIKGEHPGLSIGDVAKKLGEMWNNTAADDKQPYEKKAAKLKEKYEKDIAAYRAKGKPDAAKKGVVKAEKSK
Turning to B1, the TNF release entry (1 μg/ml protein, 8 hours, RAW 264.7 cells) was “significantly stimulated TNF release”.
